Here are results for nine compounds from patent publication US12227500B2, “Substituted pyrrolo[2,3-b]pyridines for suppressing toxic endoplasmic reticulum stress” (THE TRUSTEES OF COLUMBIA UNIVERSITY IN THE CITY OF NEW YORK, priority 2018, dated 2025).

Assay in all cases: Radiolabeled ATP kinase assay, panel of 60 kinases (Table S5)
Assay type in all cases: biochemical

Test [1] has as its target T1, panel of 60 human kinases (Homo sapiens, UniProt O75460).
T1 construct: purchased Reaction Biology Corp
To be noted: ERN1/IRE1; 0.1 μM; 10 μM ATP; read-out: % Enzyme Activity (relative to DSMO controls). The gist of the method:
(§1)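 Compounds at two concentrations, 0.1 μM and 0.5 μM, were screened for inhibition of 60 kinases in cell-free assays read out by radiolabeled ATP.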

Test [2] has as its target T2, panel of 60 human kinases (Homo sapiens, UniProt P49759).
T2 construct: purchased Reaction Biology Corp
The settings on record: CLK1; 0.1 μM; 10 μM ATP; read-out: % Enzyme Activity (relative to DSMO controls). The gist of the method: as §1

For test [3], the target named is T3, panel of 60 human kinases (Homo sapiens, UniProt O15264).
T3 construct: purchased Reaction Biology Corp
T3 sequence (O15264 1-365): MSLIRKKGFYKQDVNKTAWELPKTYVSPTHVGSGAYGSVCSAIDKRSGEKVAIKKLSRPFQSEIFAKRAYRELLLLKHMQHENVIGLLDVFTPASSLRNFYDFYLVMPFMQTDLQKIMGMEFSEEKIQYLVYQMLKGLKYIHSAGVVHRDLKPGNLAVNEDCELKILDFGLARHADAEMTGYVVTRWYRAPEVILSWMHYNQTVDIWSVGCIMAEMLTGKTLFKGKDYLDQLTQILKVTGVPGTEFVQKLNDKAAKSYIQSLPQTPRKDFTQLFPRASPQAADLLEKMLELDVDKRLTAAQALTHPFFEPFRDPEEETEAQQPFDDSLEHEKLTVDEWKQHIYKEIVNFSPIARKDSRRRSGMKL
To be noted: P38d/MAPK13; 0.1 μM; 10 μM ATP; read-out: % Enzyme Activity (relative to DSMO controls). The gist of the method:
as §1

The target in test [4] is T4, panel of 60 human kinases (Homo sapiens, UniProt P53778).
T4 construct: purchased Reaction Biology Corp
T4 sequence (P53778 1-367): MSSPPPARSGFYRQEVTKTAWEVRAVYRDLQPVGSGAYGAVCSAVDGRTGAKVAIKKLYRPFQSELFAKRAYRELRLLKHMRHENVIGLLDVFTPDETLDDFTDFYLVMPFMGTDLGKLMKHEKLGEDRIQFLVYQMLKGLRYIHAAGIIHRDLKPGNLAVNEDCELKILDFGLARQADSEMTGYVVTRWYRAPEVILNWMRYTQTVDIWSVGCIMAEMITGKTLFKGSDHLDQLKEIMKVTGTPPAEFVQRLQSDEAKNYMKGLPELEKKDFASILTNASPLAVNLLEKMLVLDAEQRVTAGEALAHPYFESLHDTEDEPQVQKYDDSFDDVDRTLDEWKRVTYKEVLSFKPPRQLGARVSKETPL
The settings on record: P38g; 0.1 μM; 10 μM ATP; read-out: % Enzyme Activity (relative to DSMO controls). The gist of the method: as §1

Test [5] deals with T5, panel of 60 human kinases (Homo sapiens, UniProt Q9HAZ1).
T5 construct: purchased Reaction Biology Corp
T5 sequence (Q9HAZ1 whole entry): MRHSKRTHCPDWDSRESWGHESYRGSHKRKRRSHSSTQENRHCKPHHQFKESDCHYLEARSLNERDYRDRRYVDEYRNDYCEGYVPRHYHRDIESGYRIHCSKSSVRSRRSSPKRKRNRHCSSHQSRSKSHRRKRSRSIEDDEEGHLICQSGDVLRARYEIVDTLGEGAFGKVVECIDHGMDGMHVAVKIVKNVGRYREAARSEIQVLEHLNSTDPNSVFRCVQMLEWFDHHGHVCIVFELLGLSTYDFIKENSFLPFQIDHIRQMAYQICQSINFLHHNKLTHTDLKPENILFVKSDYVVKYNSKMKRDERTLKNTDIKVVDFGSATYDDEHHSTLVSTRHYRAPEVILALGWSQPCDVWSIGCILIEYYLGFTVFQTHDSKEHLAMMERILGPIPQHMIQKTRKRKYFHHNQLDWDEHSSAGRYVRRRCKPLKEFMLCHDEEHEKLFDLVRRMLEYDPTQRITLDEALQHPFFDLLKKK
The settings on record: CLK4; 0.1 μM; 10 μM ATP; read-out: % Enzyme Activity (relative to DSMO controls). The gist of the method:
as §1

Test [6] deals with T6, panel of 60 human kinases (Homo sapiens, UniProt Q99683).
T6 construct: purchased Reaction Biology Corp
T6 sequence (Q99683 1-1374): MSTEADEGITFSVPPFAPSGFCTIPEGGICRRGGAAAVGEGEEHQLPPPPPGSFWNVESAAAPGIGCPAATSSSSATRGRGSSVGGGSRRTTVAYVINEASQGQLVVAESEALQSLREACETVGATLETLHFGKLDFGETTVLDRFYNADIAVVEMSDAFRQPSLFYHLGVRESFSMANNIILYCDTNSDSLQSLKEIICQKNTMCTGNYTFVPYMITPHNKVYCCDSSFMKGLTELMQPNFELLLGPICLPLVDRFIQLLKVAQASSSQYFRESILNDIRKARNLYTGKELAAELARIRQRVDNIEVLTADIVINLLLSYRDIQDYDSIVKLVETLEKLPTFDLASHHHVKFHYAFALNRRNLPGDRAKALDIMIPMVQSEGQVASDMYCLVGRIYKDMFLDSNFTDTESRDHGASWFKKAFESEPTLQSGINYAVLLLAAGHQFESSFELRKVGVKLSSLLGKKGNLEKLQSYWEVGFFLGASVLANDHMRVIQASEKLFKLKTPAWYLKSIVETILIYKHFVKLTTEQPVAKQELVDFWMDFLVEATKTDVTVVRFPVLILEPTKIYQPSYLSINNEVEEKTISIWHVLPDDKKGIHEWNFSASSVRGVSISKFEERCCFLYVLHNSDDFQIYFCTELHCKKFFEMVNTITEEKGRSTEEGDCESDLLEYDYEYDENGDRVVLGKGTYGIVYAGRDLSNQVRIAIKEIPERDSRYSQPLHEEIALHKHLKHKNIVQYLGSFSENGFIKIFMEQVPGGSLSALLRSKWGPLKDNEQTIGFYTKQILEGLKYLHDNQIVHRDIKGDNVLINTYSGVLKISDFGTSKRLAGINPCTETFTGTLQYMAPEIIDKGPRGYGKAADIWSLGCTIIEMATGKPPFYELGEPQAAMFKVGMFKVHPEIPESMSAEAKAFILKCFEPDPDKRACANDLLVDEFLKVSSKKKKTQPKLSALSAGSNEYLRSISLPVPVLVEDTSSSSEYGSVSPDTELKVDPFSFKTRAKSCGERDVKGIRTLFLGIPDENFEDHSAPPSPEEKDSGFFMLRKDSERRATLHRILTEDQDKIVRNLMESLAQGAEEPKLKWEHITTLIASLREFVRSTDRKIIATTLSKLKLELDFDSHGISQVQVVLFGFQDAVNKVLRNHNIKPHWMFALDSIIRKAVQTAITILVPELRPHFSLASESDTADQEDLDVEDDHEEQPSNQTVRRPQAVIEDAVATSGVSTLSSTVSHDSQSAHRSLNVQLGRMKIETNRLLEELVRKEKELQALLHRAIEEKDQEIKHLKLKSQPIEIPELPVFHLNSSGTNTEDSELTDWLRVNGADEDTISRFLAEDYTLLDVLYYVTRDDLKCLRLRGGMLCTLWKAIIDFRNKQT
To be noted: ASK1/MAP3K5; 0.1 μM; 10 μM ATP; read-out: % Enzyme Activity (relative to DSMO controls). The gist of the method: as §1

Test [7] concerns the target T7, panel of 60 human kinases (Homo sapiens, UniProt P53779).
T7 construct: purchased Reaction Biology Corp
To be noted: JNK3; 0.1 μM; 10 μM ATP; read-out: % Enzyme Activity (relative to DSMO controls). The gist of the method:
as §1

The structures appear in SMILES notation.

T2 sequence (P49759 whole entry): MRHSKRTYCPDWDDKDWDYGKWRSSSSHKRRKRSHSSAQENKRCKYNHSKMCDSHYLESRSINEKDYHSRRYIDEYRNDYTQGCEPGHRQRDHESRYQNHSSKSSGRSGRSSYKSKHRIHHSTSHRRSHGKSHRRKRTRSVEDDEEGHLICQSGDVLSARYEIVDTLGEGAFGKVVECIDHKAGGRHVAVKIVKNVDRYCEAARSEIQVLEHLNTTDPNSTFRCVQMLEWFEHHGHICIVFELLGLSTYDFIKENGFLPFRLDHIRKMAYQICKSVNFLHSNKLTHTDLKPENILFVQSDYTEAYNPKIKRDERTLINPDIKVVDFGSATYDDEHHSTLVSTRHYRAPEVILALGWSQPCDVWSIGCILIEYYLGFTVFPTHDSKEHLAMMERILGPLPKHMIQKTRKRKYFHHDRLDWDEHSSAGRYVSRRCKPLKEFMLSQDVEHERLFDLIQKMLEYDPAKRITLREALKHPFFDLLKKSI
T1 sequence (O75460 19-977): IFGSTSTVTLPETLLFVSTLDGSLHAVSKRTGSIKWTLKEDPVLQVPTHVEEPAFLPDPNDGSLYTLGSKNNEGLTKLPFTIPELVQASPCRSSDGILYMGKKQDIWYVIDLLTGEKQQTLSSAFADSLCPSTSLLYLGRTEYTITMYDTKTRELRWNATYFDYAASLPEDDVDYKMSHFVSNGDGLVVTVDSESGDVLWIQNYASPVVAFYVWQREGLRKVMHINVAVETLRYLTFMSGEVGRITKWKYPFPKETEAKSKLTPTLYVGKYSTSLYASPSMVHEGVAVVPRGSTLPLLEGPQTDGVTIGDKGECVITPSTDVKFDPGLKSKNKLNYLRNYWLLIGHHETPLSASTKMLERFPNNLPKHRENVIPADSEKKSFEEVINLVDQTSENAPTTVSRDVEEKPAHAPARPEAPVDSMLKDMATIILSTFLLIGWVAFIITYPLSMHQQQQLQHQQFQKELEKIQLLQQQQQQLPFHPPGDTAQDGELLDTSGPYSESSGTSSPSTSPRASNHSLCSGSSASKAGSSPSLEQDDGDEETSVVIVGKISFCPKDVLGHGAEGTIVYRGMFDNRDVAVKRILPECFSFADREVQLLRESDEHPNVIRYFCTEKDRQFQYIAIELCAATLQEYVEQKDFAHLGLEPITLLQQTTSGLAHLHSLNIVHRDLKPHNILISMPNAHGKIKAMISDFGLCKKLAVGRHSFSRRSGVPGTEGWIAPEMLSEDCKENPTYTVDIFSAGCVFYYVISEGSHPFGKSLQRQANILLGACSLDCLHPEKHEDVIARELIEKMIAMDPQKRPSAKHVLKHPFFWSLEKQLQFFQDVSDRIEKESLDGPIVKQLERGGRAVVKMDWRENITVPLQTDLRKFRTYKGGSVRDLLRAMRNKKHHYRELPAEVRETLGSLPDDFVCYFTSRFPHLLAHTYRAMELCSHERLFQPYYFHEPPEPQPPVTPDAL
T7 sequence (P53779 whole entry): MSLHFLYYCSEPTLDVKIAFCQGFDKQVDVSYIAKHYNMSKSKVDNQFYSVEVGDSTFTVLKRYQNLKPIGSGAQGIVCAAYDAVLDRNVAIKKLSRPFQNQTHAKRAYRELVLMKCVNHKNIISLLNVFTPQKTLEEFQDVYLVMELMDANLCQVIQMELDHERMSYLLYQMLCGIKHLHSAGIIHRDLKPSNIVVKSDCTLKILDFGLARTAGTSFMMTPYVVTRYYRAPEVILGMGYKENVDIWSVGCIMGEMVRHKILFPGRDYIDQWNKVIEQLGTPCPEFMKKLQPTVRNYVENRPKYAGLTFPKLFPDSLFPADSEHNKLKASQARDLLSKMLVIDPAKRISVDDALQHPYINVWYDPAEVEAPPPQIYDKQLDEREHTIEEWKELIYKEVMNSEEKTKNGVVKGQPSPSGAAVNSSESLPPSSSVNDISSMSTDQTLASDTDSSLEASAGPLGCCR

Take `CN1CCN(Cc2ccc(-c3cnc4[nH]cc(-c5cccc(Cl)c5)c4c3)cc2)CC1` [Compound 7ad, 3-(3-Chlorophenyl)-5-(4-((4-methylpiperazin-1-yl)methyl)phenyl)-1H-pyrrolo[2,3-b]pyridine]: the remaining activity at 0.1 µM in test [1] worked out at 102%; in test [2], 81.2%; in test [3] it was 119%; in test [4], 108%; in test [5] it was 87.8%; in test [6] it was 95.4%. Further, in test [7], the remaining activity at 0.1 µM came to 106%.
Regarding `CN1CCN(Cc2ccc(-c3cnc4[nH]cc(-c5ccc6c(c5)OCCO6)c4c3)cc2)CC1` [Compound 7d, 3-(2,3-Dihydrobenzo[b][1,4]dioxin-6-yl)-5-(4-((4-methylpiperazin-1-yl)methyl)phenyl)-1H-pyrrolo[2,3-b]pyridine], the remaining activity at 0.1 µM worked out at 107% in test [1]; 1.66% in test [2]; 98.6% in test [3]; 108% in test [4]; 21.3% in test [5]; 80.2% in test [6]. Moreover, in test [7], the remaining activity at 0.1 µM is 120%.
Turning to `Cc1nn(C)c(C)c1-c1c[nH]c2ncc(-c3ccc(CN4CCN(C)CC4)cc3)cc12` [Compound 7ai, 5-(4-((4-Methylpiperazin-1-yl)methyl)phenyl)-3-(1,3,5-trimethyl-1H-pyrazol-4-yl)-1H-pyrrolo[2,3-b]pyridine], the remaining activity at 0.1 µM in test [1] was 102%; in test [2] it was 66.4%; in test [3] it was 106%; in test [4], 106%; in test [5] it was 78.5%; in test [6], 96.2%. For the same compound, the remaining activity at 0.1 µM in test [7] was 107%.
Consider `CN1CCN(Cc2ccc(-c3cnc4[nH]cc(-c5ccc6[nH]ccc6c5)c4c3)cc2)CC1` [Compound 1, 3-(1H-Indol-5-yl)-5-(4-((4-methylpiperazin-1-yl)methyl)phenyl)-1H-pyrrolo[2,3-b]pyridine, reference compound], for which the remaining activity at 0.1 µM in test [1] is 108%; in test [2], 33%; in test [3], 112%; in test [4], 99.3%; in test [5] it was 59.2%; in test [6] it was 90.8%. Also, in test [7], the remaining activity at 0.1 µM was 122%.
`CN1CCN(Cc2ccc(-c3cnc4[nH]cc(-c5cnn(Cc6ccccc6)c5)c4c3)cc2)CC1` [Compound 7ah, 3-(1-Benzyl-1H-pyrazol-4-yl)-5-(4-((4-methylpiperazin-1-yl)methyl)phenyl)-1H-pyrrolo[2,3-b]pyridine]: the remaining activity at 0.1 µM in test [1] is 104%; in test [2], 3.41%; in test [3] it was 109%; in test [4], 106%; in test [5] it was 21.8%; in test [6], 95.6%. Also, the remaining activity at 0.1 µM in test [7] turned out to be 81.8%.
Consider `CN1CCN(Cc2ccc(-c3cnc4[nH]cc(-c5ccncc5)c4c3)cc2)CC1` [Compound 7n, 5-(4-((4-Methylpiperazin-1-yl)methyl)phenyl)-3-(pyridin-4-yl)-1H-pyrrolo[2,3-b]pyridine], for which the remaining activity at 0.1 µM came to 107% in test [1]; 34.9% in test [2]; 105% in test [3]; 114% in test [4]; 72.2% in test [5]; 95.4% in test [6]. Also, in test [7], the remaining activity at 0.1 µM turned out to be 115%.
As to `CN1CCN(Cc2ccc(-c3cnc4[nH]cc(-c5ccoc5)c4c3)cc2)CC1` [Compound 7w, 3-(Furan-3-yl)-5-(4-((4-methylpiperazin-1-yl)methyl)phenyl)-1H-pyrrolo[2,3-b]pyridine], the remaining activity at 0.1 µM in test [1] was 102%; in test [2], 81.9%; in test [3], 112%; in test [4], 116%; in test [5], 85.5%; in test [6] it was 96%. Also, the remaining activity at 0.1 µM in test [7] was 113%.
Take `COc1ccccc1-c1c[nH]c2ncc(-c3ccc(CN4CCN(C)CC4)cc3)cc12` [Compound 7at, 3-(2-Methoxyphenyl)-5-(4-((4-methylpiperazin-1-yl)methyl)phenyl)-1H-pyrrolo[2,3-b]pyridine]: the remaining activity at 0.1 µM stood at 101% in test [1]; 78.4% in test [2]; 104% in test [3]; 103% in test [4]; 90.4% in test [5]; 96.3% in test [6]. Also, the remaining activity at 0.1 µM in test [7] was 104%.
On to `CN1CCN(Cc2ccc(-c3cnc4[nH]cc(-c5ccccc5Cl)c4c3)cc2)CC1` [Compound 7as, 3-(2-Chlorophenyl)-5-(4-((4-methylpiperazin-1-yl)methyl)phenyl)-1H-pyrrolo[2,3-b]pyridine], for which the remaining activity at 0.1 µM in test [1] was determined as 97.5%; in test [2], 44.6%; in test [3], 113%; in test [4] it was 109%; in test [5], 65.7%; in test [6], 87.6%. In addition, the remaining activity at 0.1 µM in test [7] stood at 111%.
